Source: US8853277B2, “Nitroxide therapy for the treatment of von Hippel—Lindau disease (VHL) and renal clear cell carcinoma (RCC)” (The United States of America, as represented by the …, priority 2009, dated 2014)

Experiments:
HIF-2α = assay: Western blot of HIF-2α in nuclear proteins of 786-0 RCC cells; format: cell-based, human; details: 786-0 cells, 5 mM, two to four hours, compared to Tempol-H or growth medium (control)
Procedure: The human sporadic RCC cell line 786-0 was obtained from the American Tissue Culture Collection (ATCC) (Manassas, Va.). This cell line contains a single inactivated VHL allele, produces no VHL protein, is deficient for HIF-la expression, and constitutively expresses HIF-2α. Gnarra et al., Nat. Genet., 7: 85-90 (1994) and Maxwell et al., Nature, 399: 271-275 (1999). Cultures of 786-0 cells were pre-incubated for one hour in KREB's buffer (115 mM NaCl, 5.9 mM KCl, 1.2 mM MgCl2, 1.2 mM NaH2PO4, 1.2 mM Na2SO4, 2.5 mM CaCl2, and 25 mM NaHCO3) at pH 7.4 and with 4.5 g/L of glucose. Cells were then treated for two to four hours with (i) Tempol (5 mM) obtained from Sigma Aldrich (St. Louis, Mo.), (ii) its non-functional hydroxylamine (protonated, reduced) variant: 1,4-dihydroxy-2,2,6,6-tetramethylpiperidine (Tempol-H) (5 mM) (Sigma Aldrich), or (iii) growth medium as a negative control. Cells were harvested, nuclear protein extractions performed, and protein concentrations were measured by BCA assay from Pierce (Rockford, Ill.). Aliquots of extracted nuclear proteins (20 μg) were loaded in a 7.5% polyacrylamide gel and separated by sodium dodecyl sulfate polyacrylamide gel electrophoresis (SDS-PAGE). Proteins were transferred to PVDF membranes, which were then blocked for one to sixteen hours in a solution of 5% dry milk. […]

HIF2 α = assay: HIF-2α levels in eight other cell lines from patients with VHL mutations; format: cell-based, human; details: Tempol treatment
786-0 (VHL−/−) cells = assay: 786-0 (VHL−/−) subcutaneous tumor growth in SCID/BEIGE mice, Tempol in drinking water; format: in vivo; details: 2 mM in drinking water
Procedure: The tumor inhibitory effect of stable nitroxides were studied in vivo using mice with mutations in the Prkdc gene (SCID, which is associated severe combined immunodeficiency), and bg (BEIGE) gene. Twenty female SCID/BEIGE mice (C.B-Igh-1b/GbmsTac-Prkdc^scid-Lyst^bg N7 (CBSCBG) from Taconic (Hudson, N.Y.)) were injected with about 8 million 786-0 (VHL−/−) cells subcutaneously on the right flank. Starting on the day of injection, Tempol was diluted in PBS and added twice a week to the water bottle feeding a group of ten injected mice. The final concentration of Tempol in water was 2 mM. The control group of ten remaining mice received an equivalent amount of PBS in water twice a week. The volume of the tumors and weight of the mice were recorded once a week for up to 100 days. When the control group tumor volume reached 1 cm^3, tumors of 8 mice maintained as controls were harvested. At the same time, 4 of the animals maintained on Tempol were harvested and fast-frozen or paraffin embedded for further experiments. The average tumor volume as a function of time for each group is depicted in FIG. 2.

786-0 cells (VHL−/−) = assay: 786-0 (VHL−/−) subcutaneous tumor growth in SCID/BEIGE mice, Tempol in chow; format: in vivo; details: 10 mg/g of food, after ten weeks, compared to control mice fed normal chow (P<0.05)
Procedure: Twenty female SCID/BEIGE mice were injected with 786-0 cells (VHL−/−) subcutaneously on the right flank, as described in Example 2. Starting on the day of injection, a control group of ten injected mice were fed standard chow (NIH-031, Zeigler Brothers, Inc. (Gardners, Pa.)) and a group ten injected mice received chow supplemented with Tempol. The Tempol diet supplement was made by a cold press technique from powdered Tempol uniformly mixed with bacon-flavored mouse chow (Bio-Serv Inc. (Frenchtown, N.J.)) providing a Tempol concentration of 10 mg/g of food. Bacon-flavored chow without Tempol was also added to the control diet. The volume of the tumors and the weight of the mice were recorded once a week for more than ten weeks. Tumor volumes as a function of time are depicted in FIG. 3. When the tumor volumes of the control group reached 1 cm^3, the tumors of all mice were harvested and fast-frozen or paraffin embedded for further experiments.

## CC1(C)CC(O)CC(C)(C)N1[O] [Tempol, 4-hydroxy-2,2,6,6-tetramethylpiperidine-1-oxyl]
HIF-2α
  HIF-2α levels: significantly reduced
HIF2 α
  HIF2 α levels: reduced HIF2 α levels significantly
786-0 (VHL−/−) cells; 80 days, versus control animals
  tumor size when sacrificed at the 80 day time point: smaller tumors
786-0 (VHL−/−) cells; SCID/BEIGE mice, up to 100 days
  average tumor volume as compared to the control group: markedly lower average tumor volume
786-0 (VHL−/−) cells; four mice maintained up to 100 days
  tumor size at 100 days: quite small
786-0 cells (VHL−/−)
  tumor growth: reduced by a statistically significant amount
